#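 Briefly, cells in 96-well plates were exposed to five compound concentrations for 48 h, and endpoints were estimated by linear interpolation. TGI is the concentration that stops growth completely.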
# Tests used:
# Assay in all cases: NCI anticancer screen, dose series, 48 h
# SN12C renal = tested on: SN12C renal
# K-562 leukemia = tested on: K-562 leukemia
# CAKI-1 renal = tested on: CAKI-1 renal
# SK-OV-3 ovarian = tested on: SK-OV-3 ovarian
# RPMI-8226 leukemia = tested on: RPMI-8226 leukemia
# A549 NSCLC = tested on: A549 NSCLC
# SW-620 colon = tested on: SW-620 colon
# EKVX NSCLC = tested on: EKVX NSCLC
# CCRF-CEM leukemia = tested on: CCRF-CEM leukemia
# HCT-15 colon = tested on: HCT-15 colon
# MALME-3M melanoma = tested on: MALME-3M melanoma
# SF-268 CNS = tested on: SF-268 CNS
# HCC-2998 colon = tested on: HCC-2998 colon
# TK-10 renal = tested on: TK-10 renal
# NCI-H226 lung = tested on: NCI-H226 lung
# SNB-19 CNS = tested on: SNB-19 CNS
# LOX IMVI melanoma = tested on: LOX IMVI melanoma
# SK-MEL-2 melanoma = tested on: SK-MEL-2 melanoma
# UO-31 renal = tested on: UO-31 renal
# KM12 colon = tested on: KM12 colon
SMILES,TGI (SN12C renal),TGI (K-562 leukemia),TGI (CAKI-1 renal),TGI (SK-OV-3 ovarian),TGI (RPMI-8226 leukemia),TGI (A549 NSCLC),TGI (SW-620 colon),TGI (EKVX NSCLC),TGI (CCRF-CEM leukemia),TGI (HCT-15 colon),TGI (MALME-3M melanoma),TGI (SF-268 CNS),TGI (HCC-2998 colon),TGI (TK-10 renal),TGI (NCI-H226 lung),TGI (SNB-19 CNS),TGI (LOX IMVI melanoma),TGI (SK-MEL-2 melanoma),TGI (UO-31 renal),TGI (KM12 colon)
CC(C)c1cccc(C(C)C)c1NC(=O)C(=O)C1CCC2=C(Sc3ccccc3N2)C1=O (stereo not given),> 100 µM,> 100 µM,> 100 µM,> 100 µM,> 100 µM,> 100 µM,32.5 µM,> 100 µM,> 100 µM,> 100 µM,> 100 µM,> 100 µM,> 100 µM,> 100 µM,> 100 µM,> 100 µM,> 100 µM,> 100 µM,> 100 µM,> 100 µM
O=c1[nH]nc(CNc2ccc(Cl)cc2Cl)c2ccccc12,97 µM,> 100 µM,51.7 µM,38.1 µM,> 100 µM,43.2 µM,> 100 µM,85.7 µM,> 100 µM,89.1 µM,49.7 µM,44.7 µM,44.5 µM,45.7 µM,81.2 µM,60.7 µM,> 100 µM,> 100 µM,33.7 µM,> 100 µM
Cc1cccc(N=Cc2ccc(N(CCC#N)S(=O)(=O)c3ccccc3)cc2C)c1,> 100 µM,> 100 µM,> 100 µM,> 100 µM,> 100 µM,> 100 µM,> 100 µM,> 100 µM,> 100 µM,> 100 µM,> 100 µM,> 100 µM,> 100 µM,> 100 µM,> 100 µM,> 100 µM,> 100 µM,> 100 µM,> 100 µM,> 100 µM
O=c1c(C(c2ccc([N+](=O)[O-])cc2)c2c(O)c3ccccc3n(-c3ccccc3)c2=O)c(O)c2ccccc2n1-c1ccccc1,> 100 µM,> 100 µM,> 100 µM,> 100 µM,57.1 µM,> 100 µM,57.7 µM,59.7 µM,13.4 µM,30.7 µM,28.8 µM,98.6 µM,29.1 µM,> 100 µM,74.8 µM,> 100 µM,27.2 µM,31 µM,21.3 µM,82.5 µM
CO/N=C(/C(=O)Nc1c[n+](CC(=O)[O-])cs1)c1csc(N)n1,> 100 µM,> 100 µM,> 100 µM,> 100 µM,> 100 µM,> 100 µM,> 100 µM,> 100 µM,> 100 µM,> 100 µM,> 100 µM,> 100 µM,> 100 µM,> 100 µM,> 100 µM,> 100 µM,> 100 µM,> 100 µM,> 100 µM,> 100 µM
CC(C)(CCl)NC(=O)c1cccc(C(=O)NC(C)(C)CCl)n1,> 100 µM,> 100 µM,> 100 µM,> 100 µM,> 100 µM,> 100 µM,> 100 µM,> 100 µM,> 100 µM,> 100 µM,> 100 µM,> 100 µM,> 100 µM,> 100 µM,> 100 µM,> 100 µM,> 100 µM,> 100 µM,> 100 µM,> 100 µM
O=C1/C(=C/c2ccccc2)CCc2ccc([N+](=O)[O-])cc21,> 100 µM,> 100 µM,> 100 µM,> 100 µM,7.13 µM,> 100 µM,> 100 µM,> 100 µM,> 100 µM,> 100 µM,> 100 µM,> 100 µM,> 100 µM,> 100 µM,> 100 µM,91.3 µM,> 100 µM,38.3 µM,> 100 µM,> 100 µM
COCN1C(=N)C(C(=O)OC(C)(C)C)=C2C=C(O)C=CC21C (stereo not given),73.9 µM,> 100 µM,28.5 µM,84 µM,> 100 µM,34.9 µM,17.5 µM,37.9 µM,50.7 µM,27.5 µM,21.3 µM,29.5 µM,40.5 µM,26.2 µM,30.6 µM,> 100 µM,26.5 µM,31.9 µM,26.4 µM,30.5 µM
CCO[C@H]1O[C@@H]2OC3(C)CCC4[C@H](C)CCC([C@H]1C)[C@]42OO3 (stereo not given in full),> 100 µM,> 100 µM,> 100 µM,> 100 µM,> 100 µM,> 100 µM,> 100 µM,> 100 µM,> 100 µM,> 100 µM,> 100 µM,> 100 µM,> 100 µM,> 100 µM,> 100 µM,> 100 µM,> 100 µM,> 100 µM,> 100 µM,> 100 µM
COc1ccccc1NC(=O)CC(=O)n1nc(C)c(N=Nc2ccccc2Cl)c1C,> 100 µM,> 100 µM,> 100 µM,98.6 µM,> 100 µM,> 100 µM,> 100 µM,> 100 µM,> 100 µM,> 100 µM,> 100 µM,> 100 µM,> 100 µM,> 100 µM,> 100 µM,> 100 µM,> 100 µM,> 100 µM,> 100 µM,> 100 µM

# — PubChem BioAssay (NCI)
